IC50 data for 29 compounds are collected here from patent publication US7098340B2, “Benzyl sulfonamide derivatives” (Warner Lambert Company LLC, priority 2003, dated 2006).

Each structure is given as a SMILES string. Some results are limits rather than exact numbers.

By IC50 is commonly meant the concentration that gives 50% inhibition. Read a low IC50 as higher potency.

For the assay, the target named is T1, androgen receptor (Homo sapiens, UniProt P10275).
T1 sequence (P10275 1-920 Q868H): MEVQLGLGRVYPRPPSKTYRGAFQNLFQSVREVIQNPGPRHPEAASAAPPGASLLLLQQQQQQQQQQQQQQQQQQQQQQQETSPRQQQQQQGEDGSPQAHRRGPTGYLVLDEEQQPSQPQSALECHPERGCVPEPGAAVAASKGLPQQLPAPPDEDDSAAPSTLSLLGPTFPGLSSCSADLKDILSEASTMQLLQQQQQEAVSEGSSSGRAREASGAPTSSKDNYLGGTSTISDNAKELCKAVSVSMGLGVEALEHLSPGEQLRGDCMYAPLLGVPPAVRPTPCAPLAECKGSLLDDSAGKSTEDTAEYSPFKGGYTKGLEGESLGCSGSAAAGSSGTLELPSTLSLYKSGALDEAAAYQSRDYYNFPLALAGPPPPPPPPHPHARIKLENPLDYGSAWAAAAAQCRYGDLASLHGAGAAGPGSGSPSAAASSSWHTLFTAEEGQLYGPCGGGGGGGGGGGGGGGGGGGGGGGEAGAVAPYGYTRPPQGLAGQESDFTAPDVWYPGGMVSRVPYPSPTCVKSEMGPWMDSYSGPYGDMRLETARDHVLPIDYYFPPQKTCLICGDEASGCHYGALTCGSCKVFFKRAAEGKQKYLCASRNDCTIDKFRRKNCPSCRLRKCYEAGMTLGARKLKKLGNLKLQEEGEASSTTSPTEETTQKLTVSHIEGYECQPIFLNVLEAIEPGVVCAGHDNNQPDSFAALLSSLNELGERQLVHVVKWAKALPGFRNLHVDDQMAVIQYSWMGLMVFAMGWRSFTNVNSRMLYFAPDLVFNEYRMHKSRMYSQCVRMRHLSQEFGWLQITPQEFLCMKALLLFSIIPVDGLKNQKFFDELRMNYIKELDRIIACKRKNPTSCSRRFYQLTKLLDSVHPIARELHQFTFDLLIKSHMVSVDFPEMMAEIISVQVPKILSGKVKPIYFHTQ
In words: AR Antagonist Cell Assay (MMTV-luciferase reporter, DHT-stimulated). The format is cell-based. The note with it: MDA-MB453-MMTV clone 54-19 cells; antagonism of 100 pM DHT, 17 hr, luciferase readout. The gist of the method: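 MDA-MB453 cells stably carrying MMTV-ARE-firefly luciferase, in 1% charcoal-treated serum, preincubated 30 min with compound (10 uM or 1 uM) then stimulated with 100 pM DHT for 17 h at 37° C. Luminescence read; result as % inhibition of DHT fold induction.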
In the case of `O=c1cc(C(F)(F)F)c2cc(Cc3ccc(S(=O)(=O)NCc4ccccc4OC(F)F)cc3)ccc2o1` [Example 199, N-(2-Difluoromethoxybenzyl)-4-(2-oxo-4-trifluoromethyl-2H-chromen-6-ylmethyl)benzenesulfonamide], the IC50 was 4.73 µM.

In turn, `O=c1cc(C(F)(F)F)c2cc(Cc3ccc(S(=O)(=O)NC4CCN(Cc5ccccc5)C4)cc3)ccc2[nH]1` (centres unmarked) [Example 86] registered an IC50 of 2.28 µM.

Consider `CN(C1CCCCC1)S(=O)(=O)c1ccc(Cc2ccc3oc(=O)cc(C(F)(F)F)c3c2)cc1` [Example 106, N-Cyclohexyl-N-methyl-4-(2-oxo-4-trifluoromethyl-2H-chromen-6-ylmethyl)-benzenesulfonamide], for which the IC50 was > 10 µM.

`O=c1cc(C(F)(F)F)c2cc(Cc3ccc(S(=O)(=O)NCC4CCCC[C@H]4O)cc3)ccc2o1` (stereo in doubt) [Example 177, N-(2-Hydroxycyclohexylmethyl)-4-(2-oxo-4-trifluoromethyl-2H-chromen-6-ylmethyl)benzenesulfonamide] yielded an IC50 of 5.77 µM.

In the case of `O=c1cc(C(F)(F)F)c2cc(Cc3ccc(S(=O)(=O)NCC4CCCCC4)cc3)ccc2o1` [Example 165, N-Cyclohexylmethyl-4-(2-oxo-4-trifluoromethyl-2H-chromen-6-ylmethyl)benzene-sulfonamide], the half-inhibitory concentration (IC50) was ~10 µM.

In turn, `CC(O)c1cccc(NS(=O)(=O)c2ccc(Cc3ccc4oc(=O)cc(C(F)(F)F)c4c3)cc2)c1` (centres unmarked) [Example 133, N-[3-(1-Hydroxyethyl)phenyl]-4-(2-oxo-4-trifluoromethyl-2H-chromen-6-ylmethyl)-benzenesulfonamide] yielded an IC50 of 6.91 µM.

Compound `O=c1cc(C(F)(F)F)c2cc(Cc3ccc(S(=O)(=O)Nc4ccc5c(c4)CCC5)cc3)ccc2o1` [Example 127, N-Indan-5-yl-4-(2-oxo-4-trifluoromethyl-2H-chromen-6-ylmethyl)benzenesulfonamide] showed an IC50 of 2.77 µM.

For `Cc1ccc(-c2ccccc2)cc1NS(=O)(=O)c1ccc(Cc2ccc3[nH]c(=O)cc(C(F)(F)F)c3c2)cc1` [Example 22, N-(4-Methylbiphenyl-3-yl)-4-(2-oxo-4-trifluoromethyl-1,2-dihydroquinolin-6-ylmethyl)-benzenesulfonamide], the IC50 is > 10 µM.

Turning to `O=c1cc(C(F)(F)F)c2cc(Cc3ccc(S(=O)(=O)Nc4ccc(CO)cc4)cc3)ccc2o1` [Example 124, N-(4-Hydroxymethylphenyl)-4-(2-oxo-4-trifluoromethyl-2H-chromen-6-ylmethyl)-benzenesulfonamide], half-maximal inhibition (IC50) required 2.31 µM.

Take `CC(CNS(=O)(=O)c1ccc(Cc2ccc3oc(=O)cc(C(F)(F)F)c3c2)cc1)c1ccccc1` (centres unmarked) [Example 180, 4-(2-Oxo-4-trifluoromethyl-2H-chromen-6-ylmethyl)-N-(2-phenylpropyl)-benzenesulfonamide]: the IC50 was 2.06 µM.

The compound `CCCN(CC1CC1)S(=O)(=O)c1ccc(Cc2ccc3[nH]c(=O)cc(C(F)(F)F)c3c2)cc1` [Example 9A, N-Cyclopropylmethyl-4-(2-oxo-trifluoromethyl-1,2-dihydroquinolin-6-ylmethyl)-N-propylbenzenesulfonamide] registered an IC50 of 6.29 µM.

The compound `CSc1cccc(NS(=O)(=O)c2ccc(Cc3ccc4oc(=O)cc(C(F)(F)F)c4c3)cc2)c1` [Example 134, N-(3-Methylsulfanylphenyl)-4-(2-oxo-4-trifluoromethyl-2H-chromen-6-ylmethyl)-benzenesulfonamide] came in with an IC50 of 1.24 µM.

As for `O=c1cc(C(F)(F)F)c2cc(Cc3ccc(S(=O)(=O)NCc4cccnc4)cc3)ccc2o1` [Example 163, 4-(2-Oxo-4-trifluoromethyl-2H-chromen-6-ylmethyl)-N-pyridin-3-ylmethylbenzenesulfonamide], the IC50 was 3.08 µM.

Compound `O=c1cc(C(F)(F)F)c2cc(Cc3ccc(S(=O)(=O)Nc4ccc5c(c4)OCO5)cc3)ccc2o1` [Example 131, N-Benzo[1,3]dioxol-5-yl-4-(2-oxo-4-trifluoromethyl-2H-chromen-6-ylmethyl)-benzenesulfonamide] came in with an IC50 of 2.4 µM.

`O=c1cc(C(F)(F)F)c2cc(Cc3ccc(S(=O)(=O)N(CCO)Cc4ccccc4)cc3)ccc2o1` [Example 103, N-Benzyl-N-(2-hydroxyethyl)-4-(2-oxo-4-trifluoromethyl-2H-chromen-6-ylmethyl)-benzenesulfonamide]: the IC50 is ~10 µM.

Regarding `CCc1ccc(NS(=O)(=O)c2ccc(Cc3ccc4oc(=O)cc(C(F)(F)F)c4c3)cc2)cc1` [Example 120, N-(4-Ethylphenyl)-4-(2-oxo-4-trifluoromethyl-2H-chromen-6-ylmethyl)-benzenesulfonamide], the IC50 is 1.32 µM.

The compound `COc1ccc(N(Cc2ccccc2)S(=O)(=O)c2ccc(Cc3ccc4oc(=O)cc(C(F)(F)F)c4c3)cc2)cc1` [Example 154, N-Benzyl-N-(4-methoxyphenyl)-4-(2-oxo-4-trifluoromethyl-2H-chromen-6-ylmethyl)benzenesulfonamide] came in with an IC50 of 6.06 µM.

With `Cc1ccc(-c2ccccc2)cc1NS(=O)(=O)c1ccc(Cc2ccc3oc(=O)cc(C(F)(F)F)c3c2)cc1` [Example 132, N-(4-Methylbiphenyl-3-yl)-4-(2-oxo-4-trifluoromethyl-2H-chromen-6-ylmethyl)-benzenesulfonamide], the IC50 came out at 8.13 µM.

As to `O=c1cc(C(F)(F)F)c2cc(Cc3ccc(S(=O)(=O)NC(CCO)c4ccccc4)cc3)ccc2[nH]1` (centres unmarked) [Example 72, N-(3-Hydroxy-1-phenylpropyl)-4-(2-oxo-4-trifluoromethyl-1,2-dihydroquinolin-6-ylmethyl)-benzenesulfonamide], the IC50 is > 10 µM.

`Cc1ccccc1CNS(=O)(=O)c1ccc(Cc2ccc3oc(=O)cc(C(F)(F)F)c3c2)cc1` [Example 171, N-(2-Methylbenzyl)-4-(2-oxo-4-trifluoromethyl-2H-chromen-6-ylmethyl)benzenesulfonamide] returned a half-inhibitory concentration (IC50) of 9.62 µM.

As for `CCc1cccc(NS(=O)(=O)c2ccc(Cc3ccc4oc(=O)cc(C(F)(F)F)c4c3)cc2)c1` [Example 119, N-(3-Ethylphenyl)-4-(2-oxo-4-trifluoromethyl-2H-chromen-6-ylmethyl)-benzenesulfonamide], 3.42 µM corresponded to half-maximal inhibition (IC50).

In turn, `O=c1cc(C(F)(F)F)c2cc(Cc3ccc(S(=O)(=O)Nc4ccc(Cl)cc4)cc3)ccc2o1` [Example 135, N-(4-Chlorophenyl)-4-(2-oxo-4-trifluoromethyl-2H-chromen-6-ylmethyl)benzenesulfonamide] had a concentration for half-maximal inhibition (IC50) of 2.01 µM.

The compound `CSc1ccccc1CNS(=O)(=O)c1ccc(Cc2ccc3oc(=O)cc(C(F)(F)F)c3c2)cc1` [Example 194, N-(2-Methylsulfanylbenzyl)-4-(2-oxo-4-trifluoromethyl-2H-chromen-6-ylmethyl)benzenesulfonamide] gave an IC50 of 8 µM.

Consider `Cc1ccc(CNS(=O)(=O)c2ccc(Cc3ccc4oc(=O)cc(C(F)(F)F)c4c3)cc2)c(F)c1F` [Example 197, N-(2,3-Difluoro-4-methylbenzyl)-4-(2-oxo-4-trifluoromethyl-2H-chromen-6-ylmethyl)benzenesulfonamide], for which the IC50 was determined as 1.94 µM.

With `COc1cccc(NS(=O)(=O)c2ccc(Cc3ccc4oc(=O)cc(C(F)(F)F)c4c3)cc2)c1` [Example 156, N-(3-Methoxyphenyl)-4-(2-oxo-4-trifluoromethyl-2H-chromen-6-ylmethyl)benzene-sulfonamide], half-maximal inhibition (IC50) was put at 1.72 µM.

`C[C@H](NS(=O)(=O)c1ccc(Cc2ccc3oc(=O)cc(C(F)(F)F)c3c2)cc1)c1ccccc1` [Example 172, 4-(2-Oxo-4-trifluoromethyl-2H-chromen-6-ylmethyl)-N-(1-phenylethyl)-benzenesulfonamide] displayed an IC50 of 4.66 µM.

`CC(C)(C)c1cc(NS(=O)(=O)c2ccc(Cc3ccc4oc(=O)cc(C(F)(F)F)c4c3)cc2)cc(C(C)(C)C)c1` [Example 153, N-(3,5-Di-tert-butylphenyl)-4-(2-oxo-4-trifluoromethyl-2H-chromen-6-ylmethyl)-benzenesulfonamide]: the IC50 was > 10 µM.

In turn, `CN(CCC#N)S(=O)(=O)c1ccc(Cc2ccc3oc(=O)cc(C(F)(F)F)c3c2)cc1` [Example 108, N-(2-Cyanoethyl)-N-methyl-4-(2-oxo-4-trifluoromethyl-2H-chromen-6-ylmethyl)-benzenesulfonamide] yielded an IC50 of 4.72 µM.

For the compound `CN(CCC#N)S(=O)(=O)c1ccc(Cc2ccc3[nH]c(=O)cc(C(F)(F)F)c3c2)cc1` [Example 10, N-(2-Cyanoethyl)-N-methyl-4-(2-oxo-4-trifluoromethyl-1,2-dihydroquinolin-6-ylmethyl)benzenesulfonamide], the IC50 was > 10 µM.
